Test: IMS visualization of permeation and distribution of acephate in ivy after scattering a grain type agricultural chemical on the soil
Format: in vivo
Settings: for mass spectrum of collected leaves (peaks originating from acephate): FIG. 32; for distribution of acephate on leaf (peak at m/z=206): FIG. 33; for distribution of acephate in stem (peak at m/z=206): ivy stems collected 4 days later, FIG. 34
Experimental: A grain type pesticide agricultural chemical for horticulture was scattered on soil in which ivy was planted. 4, 8, 11, and 14 days later, leaves at about 30 mm from the soil were collected, and platinum nanoparticles were vapor deposited using a magnetron sputtering device to a thickness of 10 nm, thereby preparing samples. The grain type agricultural chemical that was used contained acephate as an active component.
Each sample was measured by IMS. Also, for the stems that were collected 4 days later, the lower stem and the upper stem, which were respectively close to and far from the root, were measured by IMS under the same conditions.
The measurement conditions of IMS are shown below.
Irradiation laser: Nd:YAG laser (355 nm)
Accelerating voltage: 19 kV
Reflectron voltage: 21 kV
Laser radius: about 100 μm (ultra mode)
Measurement interval: 150 μm

## COP(=O)(NC(C)=O)SC (centres unmarked) [acephate]
Ivy leaves at about 30 mm from the soil, collected 4 days after scattering on soil
  mass spectrum of collected leaves (peaks originating from acephate): only the peaks of the wax layer were observed
Ivy leaves collected 4 days later
  distribution of acephate on leaf (peak at m/z=206): not observed
Ivy leaves collected 8 days later
  distribution of acephate on leaf (peak at m/z=206): observed at the base of the leaves
Ivy leaves collected 11 days after scattering on soil
  mass spectrum of collected leaves (peaks originating from acephate): peaks originating from acephate were observed
Ivy leaves collected 11 days later
  distribution of acephate on leaf (peak at m/z=206): observed spreading to the tips of the leaves
Ivy leaves collected 14 days later
  distribution of acephate on leaf (peak at m/z=206): observed spreading to the tips of the leaves
Lower stem close to the soil
  distribution of acephate in stem (peak at m/z=206): strong peak of acephate was observed in the lower side of the lower stem
Moving upward along the stem
  distribution of acephate in stem (peak at m/z=206): gradual weakening of the acephate peak
